Consider 7 compounds from paper PMC6411159, “Development of a high-throughput fluorescent no-wash sodium influx assay” (PLoS ONE, 2019).

The structures appear in SMILES notation. Where two headings read alike, the source gives them in different places.

For one data set, the target named is T1, hNaV1.7 (Homo sapiens, UniProt Q15858).
T1 construct: host or cells: HEK293
The data set is classed as cell-based. Here is the method: (§1) HEK293 cells heterologously expressing human NaV1.1–1.8 (SB Drug Discovery, Glasgow, UK) were cultured in Minimum Essential Medium (MEM) (Sigma Aldrich #M5650) containing 10% v/v fetal bovine serum (FBS) and selection antibiotics as recommended by the manufacturer. SH-SY5Y human neuroblastoma cells (Victor Diaz, Goettingen, Germany) were cultured in Roswell Park Memorial Institute (RPMI) medium containing 15% v/v FBS and supplemented with L-glutamine (1 mM). […] Cells were grown in a humidified 5% CO2 incubator at 37°C, grown to 70–80% confluence, and passaged every 3–4 days using TrypLE Express (Invitrogen) or trypsin (0.25%).
(§2) Data were plotted and analyzed using GraphPad Prism, version 6.0. For concentration-response curves, a four-parameter Hill equation with variable Hill coefficient was fitted to the data. Statistical significance was defined as P < 0.05 and was determined by an unpaired t-test assuming equal variance or one-way ANOVA with Dunnett’s post-test as indicated. Data are presented as mean±SEM.

The nature of data set [1]: octanol-water partition of quencher dyes. The data set is classed as physicochemical. The note with it: 1 mM in 1:1 octanol/water, settled overnight. Here is the method:
Supplementary file pone.0213751.s002.pdf: S2 Fig Octanol-water partition of quencher dyes. Quenchers were added to 1:1 octanol/water volume to a 1mM concentration. Tubes were agitated and allowed to settle overnight. […] (PDF) Click here for additional data file.

Data set [2] is described as follows: absorbance spectra (UV-Vis spectrophotometry). The data set is classed as physicochemical. To be noted: diluted in water, NanoDrop ND1000. Here is the method: Quencher dyes Allura Red AC, Amaranth, Carmine, Brilliant Black BN (Sigma Aldrich), and Ponceau 4R (pillar box red food dye) (Queen Australia) were diluted in water to the maximum concentration required to be within detection range (250–1000 μM). Their absorbance spectra were measured with a NanoDrop^TM ND1000 (ThermoFisher Scientific) UV-Vis spectrophotometer and plotted vs UV-Vis spectrum wavelength using GraphPad Prism 6.0.

For a further data set, the system named is adenosine receptors. On the set-up: method as in PMID 20086038. To be noted: cited from earlier work.
The target of another data set is T2, TRPV4 (Homo sapiens, UniProt Q9HBA0).
T2 construct: endogenous in cells
The data set can be described thus: FLIPR calcium dye assay in MDA-MB-468 breast cancer cells. Format: cell-based. The note with it: MDA-MB-468 cells, read-out: EC50 (increase in intracellular calcium). Here is the method: FLIPR Calcium 4 no-wash dye (Molecular Devices) and BD Calcium Assay (BD Biosciences) kits were diluted in physiological salt solution as per manufacturers instructions. […] Raw fluorescence readings were converted to response over baseline using the analysis tool of Screenworks 3.1.1.4 (Molecular Devices) and were expressed relative to the maximum increase in fluorescence of control responses following 5 min incubation of compounds.
Background: A change in cytosolic calcium serves as a functional read-out for many receptors and channels.

Another data set concerns the target T3, human NaV1.7 (Homo sapiens, UniProt Q15858).
T3 construct: host or cells: HEK293
The data set can be described thus: automated whole-cell patch-clamp electrophysiology (QPatch-16). The data set is classed as cell-based. The note with it: Ponceau 4R 1 mM. Here is the method:
Automated whole-cell patch-clamp recordings were performed on HEK293 cells heterologously expressing human NaV1.7 (SB Drug Discovery, Glasgow, UK) using a QPatch-16 automated electrophysiology platform (Sophion Bioscience, Ballerup, Denmark) as previously described. The extracellular solution consisted of (in mM): NaCl 70, Choline chloride 70, KCl 4, CaCl2 2, MgCl2 1, HEPES 10 and glucose 10; pH 7.4; osmolarity 305 mOsm. The intracellular solution consisted of (in mM): CsF 140, EGTA/CsOH 1/5, HEPES 10 and NaCl 10; pH 7.3 with CsOH; osmolarity 320 mOsm. Ponceau 4R (1 mM) was diluted in extracellular solution and incubated for 5 min before running the voltage protocol and compared to time-matched buffer controls. Patch clamp experiments were conducted at room temperature.
I-V curves were obtained with the membrane potential held at –90 mV and a series of 500 ms step pulses that ranged from –110 to +55 mV in 5-mV increments. Conductance-voltage curves were calculated using the equation G = I/(V–Vrev), where G is conductance, I is peak current and Vrev is the reversal potential. Steady-state fast inactivation was tested using a two-pulse protocol, with 500 ms step pre-pulses (as above) preceding a 10 ms pulse of –20 mV (repetition interval 6000 ms). Both steady-state activation and inactivation curves were fitted using Boltzmann function.
(In patch-clamp work, channel activity is measured electrically.)

Another data set has as its target T4, hNaV1.1 (Homo sapiens, UniProt P35498).
T4 construct: host or cells: HEK293
As to the kind of experiment: no-wash sodium influx assay (ANG-2 with quencher Ponceau 4R), FLIPR. Format: cell-based. An excerpt:
(§3) […]. […] Data are presented as mean±SEM.

The target of another data set is T5, hNaV1.4 (Homo sapiens, UniProt P35499).
T5 construct: host or cells: HEK293
Described as above. Format: cell-based. To be noted: hNaV1.4, response to veratridine 60 μM; read-out: IC50 (reduction of fluorescence response).
Source text: as §3

A further data set deals with T6, hNaV1.8 (Homo sapiens, UniProt Q9Y5Y9).
T6 construct: host or cells: HEK293
Described as above. Format: cell-based.
Source text: as §3

The next data set relates to NaV1.1–1.8. As to the kind of experiment: no-wash sodium influx assay, summary over subtypes. The data set is classed as cell-based, human. To be noted: ANG-2 + Ponceau 4R 1 mM; stimulation with veratridine (NaV1.1–1.7) or deltamethrin (NaV1.8); read-out: IC50 range over NaV1.1–1.8.
Source text: as §3

In another data set the target is hNaV1.2 (Homo sapiens, UniProt Q99250). The data set can be described thus: cell-based. Here is the method: as §1, §2
Another data set has as its system NaV1.1–1.7. To be noted: read-out: EC50 range over NaV1.1–1.7; ANG-2 + Ponceau 4R 1 mM. Here is the method:
as §1, §2

The test system of another data set is NaV1.8. The arrangement: method as in PMID 14769548. To be noted: cited from earlier work.
Where [3] appears, read: 5 min, vs time-matched buffer control.

T3 sequence (Q15858 whole entry): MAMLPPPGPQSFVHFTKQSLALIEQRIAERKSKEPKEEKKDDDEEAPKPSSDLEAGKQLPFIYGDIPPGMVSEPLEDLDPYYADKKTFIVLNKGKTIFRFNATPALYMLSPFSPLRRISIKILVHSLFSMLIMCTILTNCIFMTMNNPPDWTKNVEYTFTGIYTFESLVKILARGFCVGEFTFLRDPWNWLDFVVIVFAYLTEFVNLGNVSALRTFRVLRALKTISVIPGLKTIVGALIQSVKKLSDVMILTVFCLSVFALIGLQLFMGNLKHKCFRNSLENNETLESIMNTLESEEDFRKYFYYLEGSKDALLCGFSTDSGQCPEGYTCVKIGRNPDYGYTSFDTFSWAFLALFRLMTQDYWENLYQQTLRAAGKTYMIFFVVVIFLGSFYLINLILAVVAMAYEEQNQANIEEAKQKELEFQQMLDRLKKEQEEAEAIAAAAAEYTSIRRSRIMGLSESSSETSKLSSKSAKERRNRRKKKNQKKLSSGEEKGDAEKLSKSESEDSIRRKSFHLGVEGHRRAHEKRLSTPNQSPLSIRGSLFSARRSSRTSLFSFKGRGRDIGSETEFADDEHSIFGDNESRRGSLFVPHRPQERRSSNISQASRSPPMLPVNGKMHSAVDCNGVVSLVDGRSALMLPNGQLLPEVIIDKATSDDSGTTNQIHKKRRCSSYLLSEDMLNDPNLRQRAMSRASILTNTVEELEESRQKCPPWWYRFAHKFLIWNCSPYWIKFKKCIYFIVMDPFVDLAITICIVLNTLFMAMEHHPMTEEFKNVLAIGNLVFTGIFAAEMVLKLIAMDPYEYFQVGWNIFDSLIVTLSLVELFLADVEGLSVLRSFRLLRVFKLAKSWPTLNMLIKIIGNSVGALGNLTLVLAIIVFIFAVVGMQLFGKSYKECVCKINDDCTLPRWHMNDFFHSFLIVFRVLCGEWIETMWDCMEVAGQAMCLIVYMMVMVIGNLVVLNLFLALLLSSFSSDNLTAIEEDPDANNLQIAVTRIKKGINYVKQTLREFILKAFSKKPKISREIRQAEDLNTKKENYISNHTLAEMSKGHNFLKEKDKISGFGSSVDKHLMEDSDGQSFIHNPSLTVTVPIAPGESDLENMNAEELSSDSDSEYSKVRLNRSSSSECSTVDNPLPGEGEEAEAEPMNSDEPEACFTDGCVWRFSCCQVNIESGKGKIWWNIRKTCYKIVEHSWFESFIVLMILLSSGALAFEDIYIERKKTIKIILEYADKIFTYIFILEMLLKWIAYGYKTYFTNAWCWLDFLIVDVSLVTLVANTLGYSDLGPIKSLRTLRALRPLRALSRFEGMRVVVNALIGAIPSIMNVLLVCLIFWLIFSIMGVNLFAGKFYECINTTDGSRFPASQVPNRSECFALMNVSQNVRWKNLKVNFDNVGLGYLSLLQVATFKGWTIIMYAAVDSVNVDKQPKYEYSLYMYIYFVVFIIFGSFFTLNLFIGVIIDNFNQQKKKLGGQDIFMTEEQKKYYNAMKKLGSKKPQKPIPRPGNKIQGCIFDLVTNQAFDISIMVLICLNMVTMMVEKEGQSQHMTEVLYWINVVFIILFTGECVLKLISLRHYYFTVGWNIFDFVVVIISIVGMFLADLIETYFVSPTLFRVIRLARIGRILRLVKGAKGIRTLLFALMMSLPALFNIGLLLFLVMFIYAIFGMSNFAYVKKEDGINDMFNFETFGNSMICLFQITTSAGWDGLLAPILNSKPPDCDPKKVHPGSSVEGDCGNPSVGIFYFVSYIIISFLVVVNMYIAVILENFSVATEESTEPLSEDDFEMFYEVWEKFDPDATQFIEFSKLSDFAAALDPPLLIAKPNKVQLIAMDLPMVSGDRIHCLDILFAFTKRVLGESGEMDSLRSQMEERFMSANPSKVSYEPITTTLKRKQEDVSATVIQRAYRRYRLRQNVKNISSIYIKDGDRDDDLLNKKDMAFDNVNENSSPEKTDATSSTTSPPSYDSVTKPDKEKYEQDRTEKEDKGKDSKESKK
T2 sequence (Q9HBA0 whole entry): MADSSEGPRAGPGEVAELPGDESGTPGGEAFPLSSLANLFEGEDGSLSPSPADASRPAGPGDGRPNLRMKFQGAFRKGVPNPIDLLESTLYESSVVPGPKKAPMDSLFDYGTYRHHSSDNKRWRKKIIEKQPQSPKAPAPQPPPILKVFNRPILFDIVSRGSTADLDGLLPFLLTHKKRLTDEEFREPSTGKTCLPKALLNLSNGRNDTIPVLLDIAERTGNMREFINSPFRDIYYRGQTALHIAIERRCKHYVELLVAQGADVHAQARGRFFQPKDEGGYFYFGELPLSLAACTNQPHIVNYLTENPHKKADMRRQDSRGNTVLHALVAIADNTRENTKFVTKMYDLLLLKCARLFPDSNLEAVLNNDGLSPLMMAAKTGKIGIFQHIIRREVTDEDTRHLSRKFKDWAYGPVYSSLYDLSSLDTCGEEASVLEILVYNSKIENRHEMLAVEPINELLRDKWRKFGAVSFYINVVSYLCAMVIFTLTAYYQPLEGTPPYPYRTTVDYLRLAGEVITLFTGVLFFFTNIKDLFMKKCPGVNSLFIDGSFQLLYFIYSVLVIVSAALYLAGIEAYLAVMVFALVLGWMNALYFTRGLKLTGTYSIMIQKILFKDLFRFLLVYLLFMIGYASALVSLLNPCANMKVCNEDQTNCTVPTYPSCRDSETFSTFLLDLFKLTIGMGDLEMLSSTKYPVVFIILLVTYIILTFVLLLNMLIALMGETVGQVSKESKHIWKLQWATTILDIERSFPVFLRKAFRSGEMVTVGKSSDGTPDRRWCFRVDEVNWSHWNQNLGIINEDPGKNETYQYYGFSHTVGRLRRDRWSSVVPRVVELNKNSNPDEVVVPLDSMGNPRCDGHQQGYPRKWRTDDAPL
T6 sequence (Q9Y5Y9 whole entry): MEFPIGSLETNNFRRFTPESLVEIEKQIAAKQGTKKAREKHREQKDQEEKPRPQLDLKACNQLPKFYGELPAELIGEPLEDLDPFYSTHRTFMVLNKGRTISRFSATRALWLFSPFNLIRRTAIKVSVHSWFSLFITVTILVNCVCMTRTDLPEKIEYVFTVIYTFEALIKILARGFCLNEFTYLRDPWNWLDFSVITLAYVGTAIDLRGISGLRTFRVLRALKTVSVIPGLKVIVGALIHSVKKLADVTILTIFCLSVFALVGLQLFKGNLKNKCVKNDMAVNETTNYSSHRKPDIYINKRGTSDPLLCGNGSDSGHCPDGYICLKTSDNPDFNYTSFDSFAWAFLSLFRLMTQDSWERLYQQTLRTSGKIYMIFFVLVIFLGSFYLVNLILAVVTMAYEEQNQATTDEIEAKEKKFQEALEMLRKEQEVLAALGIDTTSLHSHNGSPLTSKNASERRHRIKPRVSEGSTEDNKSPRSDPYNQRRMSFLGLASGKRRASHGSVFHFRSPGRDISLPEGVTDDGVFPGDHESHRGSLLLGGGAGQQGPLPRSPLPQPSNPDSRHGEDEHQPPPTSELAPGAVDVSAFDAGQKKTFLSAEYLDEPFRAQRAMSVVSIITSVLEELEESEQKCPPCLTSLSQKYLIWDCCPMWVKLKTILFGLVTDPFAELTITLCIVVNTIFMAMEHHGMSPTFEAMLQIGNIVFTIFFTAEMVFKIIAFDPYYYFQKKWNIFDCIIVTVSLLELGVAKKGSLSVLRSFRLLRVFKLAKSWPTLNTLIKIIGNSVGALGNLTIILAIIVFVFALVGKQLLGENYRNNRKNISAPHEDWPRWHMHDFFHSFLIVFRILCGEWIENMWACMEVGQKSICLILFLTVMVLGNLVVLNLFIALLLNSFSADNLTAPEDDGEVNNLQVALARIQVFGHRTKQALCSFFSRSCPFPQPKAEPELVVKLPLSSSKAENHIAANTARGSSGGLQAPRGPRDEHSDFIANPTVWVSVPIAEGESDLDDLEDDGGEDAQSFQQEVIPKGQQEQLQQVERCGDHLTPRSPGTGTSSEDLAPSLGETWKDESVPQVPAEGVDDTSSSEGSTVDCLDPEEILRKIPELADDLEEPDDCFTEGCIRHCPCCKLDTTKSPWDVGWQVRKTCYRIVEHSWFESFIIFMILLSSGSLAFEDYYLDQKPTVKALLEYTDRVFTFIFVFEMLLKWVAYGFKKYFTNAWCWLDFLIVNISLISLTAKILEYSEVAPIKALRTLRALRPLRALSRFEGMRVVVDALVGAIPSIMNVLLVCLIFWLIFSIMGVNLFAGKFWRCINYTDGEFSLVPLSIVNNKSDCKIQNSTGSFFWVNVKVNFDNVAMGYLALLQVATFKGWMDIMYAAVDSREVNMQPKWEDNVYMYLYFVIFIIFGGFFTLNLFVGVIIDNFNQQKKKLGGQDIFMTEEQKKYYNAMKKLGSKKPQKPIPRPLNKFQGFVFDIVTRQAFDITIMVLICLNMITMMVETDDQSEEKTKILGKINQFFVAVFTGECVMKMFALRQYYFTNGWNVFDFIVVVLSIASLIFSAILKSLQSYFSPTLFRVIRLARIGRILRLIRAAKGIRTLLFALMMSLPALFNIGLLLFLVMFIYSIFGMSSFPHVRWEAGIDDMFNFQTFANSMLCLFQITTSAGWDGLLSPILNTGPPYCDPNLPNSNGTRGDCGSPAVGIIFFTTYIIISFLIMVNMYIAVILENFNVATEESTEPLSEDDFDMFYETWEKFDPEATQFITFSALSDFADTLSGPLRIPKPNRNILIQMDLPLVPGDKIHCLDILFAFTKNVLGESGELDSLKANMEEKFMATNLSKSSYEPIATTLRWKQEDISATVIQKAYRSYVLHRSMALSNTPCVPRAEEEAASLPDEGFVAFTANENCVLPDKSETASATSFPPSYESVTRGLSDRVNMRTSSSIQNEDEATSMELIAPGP
T1 sequence (Q15858 whole entry): as the sequence (Q15858 whole entry) above

Turning to `Cc1c(C(=O)O)c(O)cc2c1C(=O)c1c(O)c(C3O[C@H](CO)[C@@H](O)[C@H](O)[C@H]3O)c(O)c(O)c1C2=O` (stereo in doubt) [Carmine], the “veratridine-induced fluorescence signal in presence of quencher” value on hNaV1.7 is reported as “comparatively low signal”. For the same compound, the octanol-water partition result in data set [1] is listed as “partitioned into the octanol phase”.

For the compound `COc1cc(S(=O)(=O)[O-])c(C)cc1N=Nc1c(O)ccc2cc(S(=O)(=O)[O-])ccc12.[Na+].[Na+]` [Allura Red, Allura Red AC], the octanol-water partition entry in [1] is reported as “partitioned into the octanol phase”.

Consider `CC(=O)Nc1ccc(S(=O)(=O)[O-])c2cc(S(=O)(=O)[O-])c(N=Nc3ccc(N=Nc4ccc(S(=O)(=O)[O-])cc4)c4ccc(S(=O)(=O)[O-])cc34)c(O)c12.[Na+].[Na+].[Na+].[Na+]` [Brilliant Black BN], for which, in [2], the “peak absorption (λ max)” value is listed as 575 nm. Also, the “action on adenosine receptors” value with adenosine receptors was “allosteric modulator”.

Take `CC(C)C[C@H](NC(=O)c1cc2ccccc2s1)C(=O)N1CCN(C(=O)[C@H](CO)NS(=O)(=O)c2ccc(Cl)cc2Cl)CC1` [GSK1016790A]: the EC50 is 0.04 µM at TRPV4 (BD Calcium Assay Kit); 0.08 µM on TRPV4 (FLIPR Calcium 4 no-wash dye); 0.064 µM at TRPV4 (fluo-4 with Allura Red 1 mM); 0.07 µM at TRPV4 (fluo-4 with Amaranth 1 mM); 0.072 µM on TRPV4 (fluo-4 with Brilliant Black BN 1 mM); 0.074 µM on TRPV4 (fluo-4 with Ponceau 4R 1 mM). On TRPV4 (fluo-4 with wash), the EC50 stood at 0.047 µM.

For the compound `O=S(=O)([O-])c1cc(S(=O)(=O)[O-])c2c(N=Nc3ccc(S(=O)(=O)[O-])c4ccccc34)c(O)ccc2c1.[Na+].[Na+].[Na+]` [Ponceau 4R], on human NaV1.7, the “effect on activation or inactivation kinetics of NaV1.7” value was “no effect” and the “shift in the I-V curve or effect on current size” value is “did not cause a shift in the I-V curve or affect the current size”. For the same compound, at human NaV1.7 (setting [3]), the “shift in voltage-dependence of activation (V1/2 activation Δ)” value was “–0.96 mV” and the “shift in voltage-dependence of steady-state fast inactivation (V1/2 inactivation Δ)” value is reported as “–1.46 mV”.

Regarding `CCCCNc1ccc(C(=O)OCCN(C)C)cc1` [tetracaine], the IC50 at hNaV1.1 (hNaV1.1, response to veratridine 60 μM, read-out: IC50 (reduction of fluorescence response)) is 52 µM; at hNaV1.4, 13 µM; against hNaV1.8 (Tetracaine pIC50, hNaV1.8, 5 min pre-incubation, then deltamethrin 150 μM) it was 6.61 µM; on hNaV1.8 (hNaV1.8, response to deltamethrin 150 μM, read-out: IC50 (reduction of fluorescence response)) it was 6 µM; in the data set with NaV1.1–1.8 it was 6 to 66 µM.

Turning to `COc1ccc(C(=O)O[C@H]2CC[C@@]3(C)[C@@H]4CC[C@H]5[C@]6(O)C[C@H](O)[C@@]7(O)[C@@H](CN8C[C@@H](C)CC[C@H]8[C@@]7(C)O)[C@]6(O)C[C@@]53O[C@]24O)cc1OC` [veratridine], the EC50 on hNaV1.1 (EC50 (increase in fluorescence), hNaV1.1, ANG-2 + Ponceau 4R) was 21 µM; at hNaV1.1 (Veratridine pEC50, HEK293 hNaV1.1, ANG-2 + Ponceau 4R 1 mM, AUC 5 min) it was 21.9 µM; on hNaV1.2 (EC50 (increase in fluorescence), hNaV1.2, ANG-2 + Ponceau 4R), 16 µM; at hNaV1.2 (Veratridine pEC50, HEK293 hNaV1.2, ANG-2 + Ponceau 4R 1 mM, AUC 5 min), 16.6 µM; in the data set with NaV1.1–1.7 it was 10 to 29 µM. Also, in the data set on NaV1.8, the “effect on NaV1.8 in fluorescence-based assays” value is given as “little effect”.

As usually defined, the EC50 is the concentration that produces a half-maximal response. Broadly, the IC50 is the concentration at which inhibition is half-maximal.
